Source: US5256686A, “Phenylalkan(en)oic acid” (Ono Pharmaceutical Co., Ltd., priority 1989, dated 1993)

Molecular target: T1, human PMNL LTB4 receptor (Homo sapiens, UniProt Q15722)
T1 construct: endogenous in cells; host or cells: human polymorphonuclear leukocytes (PMNL), intact cells
Experiment: Binding affinity of 3H-LTB4 antagonist to human PMNL LTB4 receptor (inhibition of specific 3H-LTB4 binding)
Details: 1 nM 3H-LTB4, human PMNLs, 4° C., 20 min
Procedure: Human PMNLS (1×10^7 cells) were incubated with 1 nM ^3 H-LTB4 in Hanks balanced salt solution (1 ml) at 4° C. for 20 min. in the presence or absence of increasing concentrations of unlabeled LTB4 or various compounds. Free ^3 H-LTB4 was separated from PMNLs-bound ligands by vacuum filteration through Whatman GF/B or C glass fiber filters. The filters were then washed rapidly 4 times with 2.5 ml of the ice-cold phosphate buffered saline. The radioactivity retained in the filter was determined by liquid scintillation counting. Specific binding was defined as the difference between total binding and binding in the presence of 3 μM LTB4 (nonspecific binding). The inhibitory effect of specific ^3 H-LTB4 binding was calculated from the following equation.
The percentage of inhibition (%)=100-(B1 /B0 ×100)
B1 : specific ^3 H-LTB4 binding in presence of antagonist
B0 : specific ^3 H-LTB4 binding in absence of antagonist

T1 sequence (Q15722 whole entry): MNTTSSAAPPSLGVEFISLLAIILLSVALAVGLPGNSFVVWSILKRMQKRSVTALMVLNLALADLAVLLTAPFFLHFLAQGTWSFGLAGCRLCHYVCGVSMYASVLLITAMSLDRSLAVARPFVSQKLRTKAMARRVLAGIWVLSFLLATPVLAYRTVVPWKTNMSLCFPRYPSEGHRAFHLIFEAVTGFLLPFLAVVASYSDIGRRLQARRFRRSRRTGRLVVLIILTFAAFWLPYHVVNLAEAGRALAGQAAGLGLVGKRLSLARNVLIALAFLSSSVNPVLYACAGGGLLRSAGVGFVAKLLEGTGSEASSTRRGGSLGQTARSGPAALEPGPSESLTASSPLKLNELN

Row | SMILES | IC50 [nM]
1 | COc1ccc(/C=C/CCCCOc2ccc(NC(=O)CCCC(=O)N(C)C)cc2CCC(=O)O)cc1 [1 (a), 3-[1-[6-(4-methoxyphenyl)hex-5E-enyl]oxy-4-(4-dimethylaminocarbonylbutanamido)benzen-2-yl]propionic acid] | 45
2 | COc1ccc(/C=C/CCCCOc2ccc(NC(=O)CCCC(=O)Nc3nccs3)cc2CCC(=O)O)cc1 [1 (o), 3-[1-[6-(4-methoxyphenyl)hex-5E-enyl]oxy-4-[4-(2-thiazolyl)aminocarbonylbutanamido]benzen-2-yl]propionic acid] | 20
3 | COc1ccc(/C=C/CCCCOc2ccc(NC(=O)c3cccc(CO)c3)cc2CCC(=O)O)cc1 [4 (b), 3-[1-[6-(4-methoxyphenyl)hex-5E-enyl]oxy-4-(3-hydroxymethylbenzamido)benzen-2yl]propionic acid] | 60
4 | CCCCCC(O)/C=C/CCCCOc1ccc(NC(=O)CCCC(=O)N(C)C)cc1CCC(=O)O (stereo not shown) [5 (b), 3-[1-(5E-7-hydroxydodecenyl)oxy-4-dimethylaminocarbonylbutanamidobenzen-2-yl]propionic acid] | 300
5 | COc1ccc(CCC(O)/C=C/CCCCOc2ccc(NC(=O)CCCC(=O)N(C)C)cc2CCC(=O)O)cc1 (stereo not shown) [5 (c), 3-[1-[5E-7-hydroxy-9-(4-methoxyphenyl)nonenyl]oxy-4-dimethylaminocarbonylbutanamidobenzen-2-yl]propionic acid] | 700
6 | CN(C)C(=O)CCCC(=O)Nc1ccc(OCCCC/C=C/C(O)C2CCCCC2)c(CCC(=O)O)c1 (stereo not shown) [5 (e), 3-[1-(5E-7-hydroxy-7-cyclohexylheptenyl)oxy-4-dimethylaminocarbonylbutanamidobenzen-2-yl]propionic acid] | 350
7 | COc1ccc(/C=C/CCCCOc2ccc(NS(C)(=O)=O)cc2CCC(=O)O)cc1 [6 (b), 3-[1-[6-(4-methoxyphenyl)hex-5E-enyl]oxy-4-methylsulfonylaminobenzen-2-yl]propionic acid] | 30
8 | COc1ccc(/C=C/CCCCOc2ccc(NS(=O)(=O)Cc3ccccc3)cc2CCC(=O)O)cc1 [6 (c), 3-[1-[6-(4-methoxyphenyl)hex-5E-enyl]oxy-4-benzylsulfonylaminobenzen-2-yl]propionic acid] | 200
9 | COc1ccc(/C=C/CCCCOc2ccc(NS(=O)(=O)CCCC(=O)N(C)C)cc2CCC(=O)O)cc1 [7 (a), 3-[1-[6-(4-methoxyphenyl)hex-5E-enyl]oxy-4-(3-dimethylaminocarbonyl-n-propyl)sulfonylaminobenzen-2-yl]propionic acid] | 30
10 | COc1ccc(/C=C/CCCCOc2ccc(N(S(=O)(=O)Cc3ccccc3)S(=O)(=O)Cc3ccccc3)cc2CCC(=O)O)cc1 [10 (c), 3-[1-[6-(4-methoxyphenyl)hex-5E-enyl]oxy-4-bis(benzylsulfonyl)aminobenzen-2-yl]propionic acid] | 1000
11 | COc1ccc(/C=C/CCCCOc2ccc(N3C(=O)CCS3(=O)=O)cc2CCC(=O)O)cc1 [12 (b), 3-[1-[6-(4-methoxyphenyl)hex-5E-enyl]oxy-4-(isothiazolidin-1,1,3-trione-2-yl)benzen-2-yl]propionic acid] | 6
12 | COc1ccc(CCCCCCOc2cccc(OCCCCC(=O)N(C)C)c2CCC(=O)O)cc1 [30 (b), 3-[1-[6-(4-methoxyphenyl)hexyl]oxy-3-(4-dimethylaminocarbonylbutyl)oxybenzen-2-yl]propionic acid] | 150
13 | COc1ccc(/C=C/CCCCOc2ccc(NC(=O)CCCC(=O)N3CCOCC3)cc2CCC(=O)O)cc1 [Example 1, 3-[1-[6-(4-methoxyphenyl)hex-5E-enyl]oxy-4-(5-oxo-5-morpholinopentanamido)benzen-2-yl]propionic acid] | 130
14 | COc1ccc(/C=C/CCCCOc2ccc(NC(=O)CCCC(=O)O)cc2CCC(=O)O)cc1 [Example 2, 3-[1-[6-(4-methoxyphenyl)hex-5E-enyl]oxy-4-(4-carboxylbutanamido)benzen-2-yl]propionic acid] | 40
15 | CCCCCCC(=O)Nc1ccc(OCCCC/C=C/c2ccc(OC)cc2)c(CCC(=O)O)c1 [Example 3, 3-[1-[6-(4-methoxyphenyl)hex-5E-enyl]oxy-4-heptanamidobenzen-2-yl]propionicacid] | 170
16 | COc1ccc(/C=C/CCCCOc2ccc(NC(=O)CCCCO)cc2CCC(=O)O)cc1 [Example 4, 3-[1-[6-(4-methoxyphenyl)hex-5E-enyl]oxy-4-(5-hydroxypentanamido)benzen-2-yl]propionic acid] | 90

Row | SMILES | IC50 [nM]
17 | CCCCCCCCC(O)/C=C/CCCCOc1ccc(NC(=O)CCCC(=O)N(C)C)cc1CCC(=O)O (stereo not shown) [Example 5, 3-[1-(5E-7-hydroxypentadecenyl)oxy-4-(4-dimethylaminocarbonylbutanamido)benzen-2-yl]propionic acid] | 20
18 | COc1ccc(CCCCCCOc2ccc(NS(=O)(=O)c3ccc(C)cc3)cc2CCC(=O)O)cc1 [Example 6, 3-[1-[6-(4-methoxyphenyl)hexyl]oxy-4-(4-methylphenyl)sulfonylaminobenzen-2-yl]propionic acid] | 80
19 | COc1ccc(/C=C/CCCCOc2ccc(N(C(C)=O)S(C)(=O)=O)cc2CCC(=O)O)cc1 [Example 9, 3-[1-[6-(4-methoxyphenyl)hex-5E-enyl]oxy-4-(N-acetyl-N-mesyl)aminobenzen-2-yl]propionic acid] | 10
20 | COc1ccc(/C=C/CCCCOc2ccc(N(S(C)(=O)=O)S(C)(=O)=O)cc2CCC(=O)O)cc1 [Example 10, 3-[1-[6-(4-methoxyphenyl)hex-5E-enyl]oxy-4-dimesylaminobenzen-2-yl]propionic acid] | 13
21 | COc1ccc(/C=C/CCCCOc2ccc(N3C(=O)c4ccccc4C3=O)cc2CCC(=O)O)cc1 [Example 11, 3-[1-[6-(4-methoxyphenyl)hex-5E-enyl]oxy-4-phthalimidobenzen-2-yl]propionicacid] | 45
22 | COc1ccc(/C=C/CCCCOc2ccc(N3C(=O)CCCS3(=O)=O)cc2CCC(=O)O)cc1 [Example 12, 3-[1-[6-(4-methoxyphenyl)hex-5E-enyl]oxy-4-(perhydro-1,2-thiazin-1,1,3-trione-2-yl]benzen-2-yl]propionic acid] | 7
23 | CCCCCCCCC(O)/C=C/CCCCOc1ccc(N2C(=O)CCCS2(=O)=O)cc1CCC(=O)O (stereo not shown) [Example 13, 3-[1-(5E-7-hydroxy-n-pentadecenyl)oxy-4-(perhydro-1,2-thiazin-1,1,3-trione-2-yl)benzen-2-yl]propionic acid] | 45
24 | COc1ccc(/C=C/CCCCOc2ccc(OCCCCC(=O)O)cc2CCC(=O)O)cc1 [Example 14, 3-[1-[6-(4-methoxyphenyl)hex-5E-enyl]oxy-4-(4-carboxylbutoxy)benzen-2-yl]propionic acid] | 70
25 | COc1ccc(/C=C/CCCCOc2ccc(CCCCC(=O)N(C)C)cc2CCC(=O)O)cc1 [Example 18, 3-[1-[6-(4-methoxyphenyl)hex-5E-enyl]oxy-4-(4-dimethylaminocarbonylbutyl)benzen-2-yl]propionic acid] | 25
26 | COc1ccc(/C=C/CCCCOc2ccc(C(=O)CCCC(=O)N(C)C)cc2CCC(=O)O)cc1 [Example 19, 3-[1-[6-(4-methoxyphenyl)hex-5E-enyl]oxy-4-(1-oxo-4-dimethylaminocarbonylbutyl)benzen-2-yl]propionic acid] | 30
27 | CCCCCCCCC(O)/C=C/CCCCOc1cccc(OCCCCC(=O)N(C)C)c1CCC(=O)O (stereo not shown) [Example 29, 3-[1-(5E-7-hydroxypentadecenyl)oxy-3-(4-dimethylaminocarbonylbutyl)oxybenzen-2-yl]propionic acid] | 18
28 | COc1ccc(/C=C/CCCCOc2cccc(CCCCCC(=O)O)c2CCC(=O)O)cc1 [Example 33, 3-[1-[6-(4-methoxyphenyl)hex-5E-enyl]oxy-3-(5-carboxylpentyl)benzen-2-yl]propionic acid] | 15
29 | COc1ccc(/C=C/CCCCOc2cccc(N(S(C)(=O)=O)S(C)(=O)=O)c2CCC(=O)O)cc1 [Example 35, 3-[1-[6-(4-methoxyphenyl)hex-5E-enyl]oxy-3-dimesylaminobenzen-2-yl]propionic acid] | 200
30 | COc1ccc(/C=C/CCCCOc2cccc(N3C(=O)CCCS3(=O)=O)c2CCC(=O)O)cc1 [Example 36, 3-[1-[6-(4-methoxyphenyl)hex-5E-enyl]oxy-3-(perhydro-1,2-thiazin-1,1,3-trione-2-yl)benzen-2-yl]propionic acid] | 150
31 | COc1ccc(/C=C/CCCCOc2cccc(C(=O)CCCCC(=O)N(C)C)c2CCC(=O)O)cc1 [Example 39, 3-[1-[6-(4-methoxyphenyl)hex-5E-enyl]oxy-3-(1-oxo-5-dimethylaminocarbonylpentyl)benzen-2-yl]propionic acid] | 23
32 | COc1ccc(/C=C/CCCCOc2cccc(C(O)CCCCC(=O)N(C)C)c2CCC(=O)O)cc1 (stereo not shown) [Example 40, 3-[1-[6-(4-methoxyphenyl)hex-5E-enyl]oxy-3-(1-hydroxy-5-dimethylaminocarbonylpentyl)benzen-2-yl]propionic acid] | 170

Tested on: Human PMNLs
Experiment: Inhibition of human PMNLs aggregation (LTB4-induced)
Assay type: cell-based
Details: PMNL, LTB4 10^-8 M solution, 3 min preincubation at 37° C., pH 7.4
Procedure: ii) Inhibition of Human PMNLs aggregation
The purified human PMNLs were suspended in Hank's-0.5% BSA medium (pH 7.4) at 1×10^7 cells/ml. The PMNLs suspentions (200 μl) were preincubated with varying concentrations of tasted compounds for 3 min at 37° C. prior to the addition of 10^-8 M solution ([…]) of LTB4 in Hank's solution. PMNLs aggregation in vitro was performed with a multichannel platelet aggregometer. Aggregation was detected as change in light transmission with an aggregometer.

Row | SMILES | IC50 [nM]
33 | COc1ccc(/C=C/CCCCOc2ccc(NC(=O)CCCC(=O)N(C)C)cc2CCC(=O)O)cc1 [1 (a), 3-[1-[6-(4-methoxyphenyl)hex-5E-enyl]oxy-4-(4-dimethylaminocarbonylbutanamido)benzen-2-yl]propionic acid] | 3600
34 | COc1ccc(/C=C/CCCCOc2ccc(NC(=O)CCCC(=O)Nc3nccs3)cc2CCC(=O)O)cc1 [1 (o), 3-[1-[6-(4-methoxyphenyl)hex-5E-enyl]oxy-4-[4-(2-thiazolyl)aminocarbonylbutanamido]benzen-2-yl]propionic acid] | 3000
